The values below come from patent US6858638B2, “Substituted indazoles, compositions containing them, method of production and use” (Aventis Pharma S.A., priority 2002, dated 2005).

Structures are written as SMILES.

For one data set, the target named is T1, Aurora2 kinase (Homo sapiens, UniProt O14965).
T1 construct: A complete recombinant Aurora2 enzyme; His tag (N); made in house; host or cells: E. coli
T1 sequence (O14965 1-403): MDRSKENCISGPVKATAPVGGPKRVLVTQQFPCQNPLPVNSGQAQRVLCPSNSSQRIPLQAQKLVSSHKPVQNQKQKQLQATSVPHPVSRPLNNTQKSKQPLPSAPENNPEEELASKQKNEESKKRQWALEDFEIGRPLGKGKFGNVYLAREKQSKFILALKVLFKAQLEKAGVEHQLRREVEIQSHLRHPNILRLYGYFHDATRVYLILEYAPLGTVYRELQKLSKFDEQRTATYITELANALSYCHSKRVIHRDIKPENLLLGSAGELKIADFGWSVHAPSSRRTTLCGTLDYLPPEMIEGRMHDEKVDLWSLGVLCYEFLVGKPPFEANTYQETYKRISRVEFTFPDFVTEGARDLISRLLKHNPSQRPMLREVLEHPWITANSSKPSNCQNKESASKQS
The experiment in a line: Aurora2 kinase radioactivity scintillation assay using nickel chelate (NuMA substrate). The settings on record: 10 μM; for inhibition at 10 µM: read-out: Aurora2 % inhib at 10 μM. It is filed as biochemical. Put shortly:
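Read-out is 33P incorporation into His-NuMA (Q1687-H2101, 0.5 μM) captured on nickel chelate, after 30 min at 37 °C with 0.02 μM His-Aurora2 and 1 μM ATP. Expressed as percentage inhibition of uncompounded control activity, background subtracted.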

A further data set has as its system c-Src protein. The data set is described as follows: Src kinase phosphorylation of biotinylated cdc2 substrate, fluorescence (DELFIA). It is filed as biochemical, human. How it is done: The inhibition of the Src kinase is evaluated by measuring the phosphorylation of the biotinylated cdc2 substrate (Pierce) detected by fluorescence (DELFIA) using an antiphosphotyrosine antibody labeled with Europium, in 96-well Wallac plates. The c-Src protein used is a recombinant human protein produced in Baculovirus, comprising the SH3 and SH2 and the catalytic domains. The enzyme, the substrate and the various concentrations of test compounds are placed in the well in a 50 mM Tris buffer containing 10 mM MgCl2. The reaction is initiated by adding 10 μM of ATP. After incubation for 60 minutes at 30° C., the reaction is stopped by adding 75 mM EDTA. 50 μl are taken from each well and transferred into a plate coated with streptavidin. After incubation for 30 minutes at 25° C., the wells are washed with a washing buffer (Wallac) and then the antiphosphotyrosine antibody (PY20-Europium [Perkin Elmer]) is added in a volume of 75 μl. The plate is incubated for 30 minutes at 25° C. and then an “Enhancer” solution (Wallac) is added before reading the fluorescence using a fluorimeter (Perkin Elmer). The background noise is evaluated in triplicate in wells containing the substrate and the antibody in the absence of enzyme. The activity of the enzyme is measured (in triplicate) in the wells containing all the reagents in the absence of compound. The inhibition of the Src activity is expressed as percentage inhibition of the activity of the control determined in the absence of compound. The compound PP2 (Calbiochem) is included at various concentrations in each experiment as an inhibition control.

`O=S(=O)(Nc1ccc2[nH]nc(-c3ccccc3)c2c1)c1cccs1` [Example 110, N-(3-Phenyl-1H-indazol-5-yl)-thiophene-2-sulfonamide]: the inhibition at 10 µM at Aurora2 kinase stood at 100%. Moreover, in the data set on c-Src protein, the “SRC % inhib at 10 μM” value was determined as 45%.
For the molecule `O=S(=O)(Nc1ccc2[nH]nc(-c3cc4ccccc4[nH]3)c2c1)c1ccccc1OC(F)(F)F` [Example 84, N-[3-(1H-Indol-2-yl)-1H-indazol-5-yl]-2-trifluoromethoxybenzenesulfonamide], the melting point (commonly the temperature, or range, at which the solid turns liquid) fell in the range of 172 to 174 °C. Besides, the inhibition at 10 µM on Aurora2 kinase was 100%.
For `Nc1n[nH]c2ccc(NS(=O)(=O)c3c(Cl)cccc3Cl)cc12` [Example 41, N-(3-Amino-1H-indazol-5-yl)-2,6-dichlorobenzenesulfonamide], the melting point worked out at 250 °C. Also, the inhibition at 10 µM on Aurora2 kinase came out at 90%.
Taken in the same sequence, the figures for `CS(=O)(=O)c1ccccc1S(=O)(=O)Nc1ccc2[nH]nc(-c3ccc(F)cc3)c2c1` [Example 33, N-[3-(4-Fluorophenyl)-1H-indazol-5-yl]-2-methylsulfonylbenzenesulfonamide] were 209 °C and 89%.
`CS(=O)(=O)c1ccccc1S(=O)(=O)Nc1ccc2[nH]nc(-c3ccc(N)cc3)c2c1` [Example 70, N-[3-(4-Aminophenyl)-1H-indazol-5-yl]-2-methylsulfonylbenzenesulfonamide] yielded a melting point of 154 °C. The inhibition at 10 µM at Aurora2 kinase was found to be 98%.
The corresponding values for `CS(=O)(=O)c1ccccc1S(=O)(=O)Nc1ccc2[nH]nc(-c3ccoc3)c2c1` [Example 52, N-(3-Furan-3-yl-1H-indazol-5-yl)-2-methylsulfonylbenzenesulfonamide] are 249 °C and 84%.
Molecule `CS(=O)(=O)c1ccccc1S(=O)(=O)Nc1ccc2[nH]nc(C#Cc3ccccc3)c2c1` [Example 89, 2-Methylsulfonyl-N-(3-phenylethynyl-1H-indazol-5-yl)-benzenesulfonamide] displayed a melting point of 198 °C. For the same molecule, on Aurora2 kinase, the inhibition at 10 µM amounted to 92%.
As to `CS(=O)(=O)c1ccccc1S(=O)(=O)Nc1ccc2[nH]nc(-c3cccc(C#N)c3)c2c1` [Example 71, N-[3-(3-Cyanophenyl)-1H-indazol-5-yl]-2-methylsulfonylbenzenesulfonamide], the melting point turned out to be 240 °C. The inhibition at 10 µM at Aurora2 kinase came out at 93%.
Taken in the same sequence, the figures for `O=S(=O)(Nc1ccc2[nH]nc(-c3ccccc3)c2c1)C1CCNCC1` [Example 100, N-(3-Phenyl-1H-indazol-5-yl)-piperidine-4-sulfonamide] were 230 °C and 44%.
Taken in the same sequence, the figures for `Nc1n[nH]c2ccc(NS(=O)(=O)c3cccc(F)c3)cc12` [Example 26, N-(3-Amino-1H-indazol-5-yl)-3-fluorobenzenesulfonamide] were 216 °C and 95%.
Taken in the same sequence, the figures for `CS(=O)(=O)c1ccccc1S(=O)(=O)Nc1ccc2[nH]nc(/C=C/c3ccc(Cl)cc3)c2c1` [Example 76, N-{3-[(E)-2-(4-Chlorophenyl)vinyl]-1H-indazol-5-yl}-2-methylsulfonylbenzenesulfonamide] were 247 °C and 99%.
`COc1ccc(-c2n[nH]c3ccc(NS(=O)(=O)c4ccccc4S(C)(=O)=O)cc23)cc1` [Example 32, N-[3-(4-Methoxyphenyl)-1H-indazol-5-yl]-2-methylsulfonylbenzenesulfonamide] showed a melting point of 244 °C. Moreover, at Aurora2 kinase, the inhibition at 10 µM was found to be 92%.
On to `Nc1n[nH]c2ccc(NS(=O)(=O)c3c(F)cccc3F)cc12` [Example 40, N-(3-Amino-1H-indazol-5-yl)-2,6-difluorobenzenesulfonamide], for which the melting point came to 241 °C. Also, the inhibition at 10 µM on Aurora2 kinase turned out to be 70%.
`Cc1cc2[nH]nc(-c3ccccc3)c2cc1NS(=O)(=O)c1ccccc1S(C)(=O)=O` [Example 92, 2-Methylsulfonyl-N-(6-methyl-3-phenyl-1H-indazol-5-yl)-benzenesulfonamide] returned a melting point of 239 °C. For the same molecule, at Aurora2 kinase, the inhibition at 10 µM was 70%.
The corresponding values for `CS(=O)(=O)c1ccc(F)cc1S(=O)(=O)Nc1ccc2[nH]nc(-c3ccccc3)c2c1` [Example 93, 5-Fluoro-2-methylsulfonyl-N-(3-phenyl-1H-indazol-5-yl)-benzenesulfonamide] are 224 °C and 89%.
For the molecule `CS(=O)(=O)c1ccccc1S(=O)(=O)Nc1ccc2[nH]nc(-c3ccncc3)c2c1` [Example 54, 2-Methylsulfonyl-N-(3-pyridin-4-yl-1H-indazol-5-yl)benzenesulfonamide], the melting point was 265 °C. Besides, the inhibition at 10 µM at Aurora2 kinase turned out to be 100%.
Take `CS(=O)(=O)c1ccccc1S(=O)(=O)Nc1ccc2[nH]nc(N)c2c1` [Example 39, N-(3-Amino-1H-indazol-5-yl)-2-methylsulfonylbenzenesulfonamide]: the melting point is 246 °C. Moreover, at Aurora2 kinase, the inhibition at 10 µM came to 81%.
Taken in the same sequence, the figures for `CNc1n[nH]c2ccc(NS(=O)(=O)c3ccccc3S(C)(=O)=O)cc12` [Example 37, N-(3-Methylamino-1H-indazol-5-yl)-2-methylsulfonylbenzenesulfonamide] were 220 °C and 36%.
The corresponding values for `COC(=O)c1cccc(-c2n[nH]c3ccc(NS(=O)(=O)c4ccccc4S(C)(=O)=O)cc23)c1` [Example 55, Methyl 3-[5-(2-methylsulfonylbenzenesulfonamino)-1H-indazol-3-yl]benzoate] are 202 °C and 94%.
For the molecule `CS(=O)(=O)c1ccccc1S(=O)(=O)Nc1ccc2[nH]nc(-c3ccco3)c2c1` [Example 53, N-(3-Furan-2-yl-1H-indazol-5-yl)-2-methylsulfonylbenzenesulfonamide], the melting point is 248 °C. Also, the inhibition at 10 µM on Aurora2 kinase was found to be 91%.
Taken in the same sequence, the figures for `CS(=O)(=O)c1ccccc1S(=O)(=O)Nc1ccc2[nH]nc(/C=C/c3ccc(F)cc3)c2c1` [Example 74, N-{3-[(E)-2-(4-Fluorophenyl)vinyl]-1H-indazol-5-yl}-2-methylsulfonylbenzenesulfonamide] were 248 °C and 99%.
In turn, `CC(=O)Nc1ccc(S(=O)(=O)Nc2ccc3[nH]nc(-c4ccccc4)c3c2)cc1` [Example 95, N-[4-(3-Phenyl-1H-indazol-5-ylsulfamoyl)phenyl]acetamide] displayed a melting point of 167 °C. In addition, at Aurora2 kinase, the “Aurora2 % inhib at 10 μM” value was 30%.
Turning to `Nc1ccc(S(=O)(=O)Nc2ccc3[nH]nc(-c4ccccc4)c3c2)cc1` [Example 94, 4-Amino-N-(3-phenyl-1H-indazol-5-yl)benzenesulfonamide], the melting point came out at 249 °C. The inhibition at 10 µM at Aurora2 kinase came to 65%.
As to `Nc1n[nH]c2ccc(NS(=O)(=O)c3cc(F)cc(F)c3)cc12` [Example 42, N-(3-Amino-1H-indazol-5-yl)-3,5-difluorobenzenesulfonamide], the melting point came out at 232 °C. Further, on Aurora2 kinase, the inhibition at 10 µM was determined as 50%.
Taken in the same sequence, the figures for `COC(=O)/C=C/c1n[nH]c2ccc(NS(=O)(=O)c3ccccc3S(C)(=O)=O)cc12` [Example 79, Methyl (E)-3-[5(2-methylsulfonylbenzenesulfonylamino)-1H-indazol-3-yl]-acrylate] were 253 °C and 95%.
`CS(=O)(=O)c1ccccc1S(=O)(=O)Nc1ccc2[nH]nc(NCc3ccccc3)c2c1` [Example 36, N-(3-Benzylamino-1H-indazol-5-yl)-2-methylsulfonylbenzenesulfonamide]: the melting point came to 226 °C. Also, the inhibition at 10 µM on Aurora2 kinase came out at 80%.
Turning to `CS(=O)(=O)c1ccccc1S(=O)(=O)Nc1ccc2[nH]nc(Sc3ccccc3)c2c1` [Example 88, 2-Methylsulfonyl-N-(3-phenylsulfanyl-1H-indazol-5-yl)-benzenesulfonamide], the melting point was found to be 195 °C. In addition, the inhibition at 10 µM at Aurora2 kinase amounted to 55%.
